Each compound was assayed on 817829-284-R-J1-PDC complex spheroids, viability (assay: Anticancer human tumor 817829-284-R-J1-PDC patient-derived colon adenocarcinoma cell line growth inhibition [CLK]). Conditions: second compound 3.16 µM; first compound 0.0316 µM; active compounds read low.
How it was run: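 Multi-cell-type spheroids combined patient-derived tumor cells with HUVEC endothelial cells and human mesenchymal stem cells. Paired agents were dosed in half-log steps down from about clinical Cmax, or from 10 microM where Cmax was unknown.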
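Further: spheroids exposed to the agents for seven days before readout.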

Compared with `Cn1ncnc1[C@H]1c2n[nH]c(=O)c3cc(F)cc(c23)N[C@@H]1c1ccc(F)cc1` + CNC(=O)c1ccc(Nc2nc(OC3CCCC3)c3c(-c4ccc5nc(C)oc5c4)c[nH]c3n2)c(OC)c1, `O=C(c1cc(Cc2n[nH]c(=O)c3ccccc23)ccc1F)N1CCN(C(=O)C2CC2)CC1` + CNC(=O)c1ccc(Nc2nc(OC3CCCC3)c3c(-c4ccc5nc(C)oc5c4)c[nH]c3n2)c(OC)c1 is higher in viability, T/C: 16.7% for the first, 21.9% for the second.

Compared with `Nc1ccn(C2OC(CO)C(O)C2(F)F)c(=O)n1` (stereo unspecified) + CNC(=O)c1ccc(Nc2nc(OC3CCCC3)c3c(-c4ccc5nc(C)oc5c4)c[nH]c3n2)c(OC)c1, `O=c1[nH]cc(F)c(=O)[nH]1` + CNC(=O)c1ccc(Nc2nc(OC3CCCC3)c3c(-c4ccc5nc(C)oc5c4)c[nH]c3n2)c(OC)c1 is higher in viability, T/C: 6.07% for the first, 18.9% for the second.

Same assay, conditions: second compound 3.16 µM; first compound 0.1 µM; active compounds read low

Going from `CCc1c2c(nc3ccc(O)cc13)-c1cc3c(c(=O)n1C2)COC(=O)[C@]3(O)CC` + CNC(=O)c1ccc(Nc2nc(OC3CCCC3)c3c(-c4ccc5nc(C)oc5c4)c[nH]c3n2)c(OC)c1 to `Cn1ncnc1[C@H]1c2n[nH]c(=O)c3cc(F)cc(c23)N[C@@H]1c1ccc(F)cc1` + CNC(=O)c1ccc(Nc2nc(OC3CCCC3)c3c(-c4ccc5nc(C)oc5c4)c[nH]c3n2)c(OC)c1, the viability, T/C rises from 6.34% to 15.8%.

First: Nc1ccn(C2OC(CO)C(O)C2(F)F)c(=O)n1 (stereo unspecified) + CNC(=O)c1ccc(Nc2nc(OC3CCCC3)c3c(-c4ccc5nc(C)oc5c4)c[nH]c3n2)c(OC)c1
Second: O=C(c1cc(Cc2n[nH]c(=O)c3ccccc23)ccc1F)N1CCN(C(=O)C2CC2)CC1 + CNC(=O)c1ccc(Nc2nc(OC3CCCC3)c3c(-c4ccc5nc(C)oc5c4)c[nH]c3n2)c(OC)c1
The viability, T/C of the first is lower: 5.26% for the first, 20.9% for the second.

For `O=c1[nH]cc(F)c(=O)[nH]1` + CNC(=O)c1ccc(Nc2nc(OC3CCCC3)c3c(-c4ccc5nc(C)oc5c4)c[nH]c3n2)c(OC)c1, the viability, T/C was 20.1%.

Same assay, conditions: second compound 3.16 µM; first compound 0.316 µM; active compounds read low

First: CCc1c2c(nc3ccc(O)cc13)-c1cc3c(c(=O)n1C2)COC(=O)[C@]3(O)CC + CNC(=O)c1ccc(Nc2nc(OC3CCCC3)c3c(-c4ccc5nc(C)oc5c4)c[nH]c3n2)c(OC)c1
Second: O=C(c1cc(Cc2n[nH]c(=O)c3ccccc23)ccc1F)N1CCN(C(=O)C2CC2)CC1 + CNC(=O)c1ccc(Nc2nc(OC3CCCC3)c3c(-c4ccc5nc(C)oc5c4)c[nH]c3n2)c(OC)c1
The viability, T/C of the first is lower: 4.45% for the first, 19.4% for the second.

Going from `Nc1ccn(C2OC(CO)C(O)C2(F)F)c(=O)n1` (stereo unspecified) + CNC(=O)c1ccc(Nc2nc(OC3CCCC3)c3c(-c4ccc5nc(C)oc5c4)c[nH]c3n2)c(OC)c1 to `O=c1[nH]cc(F)c(=O)[nH]1` + CNC(=O)c1ccc(Nc2nc(OC3CCCC3)c3c(-c4ccc5nc(C)oc5c4)c[nH]c3n2)c(OC)c1, the viability, T/C rises from 4.97% to 13.6%.

Same assay, conditions: second compound 3.16 µM; first compound 1 µM; active compounds read low

Going from `CCc1c2c(nc3ccc(O)cc13)-c1cc3c(c(=O)n1C2)COC(=O)[C@]3(O)CC` + CNC(=O)c1ccc(Nc2nc(OC3CCCC3)c3c(-c4ccc5nc(C)oc5c4)c[nH]c3n2)c(OC)c1 to `O=C(c1cc(Cc2n[nH]c(=O)c3ccccc23)ccc1F)N1CCN(C(=O)C2CC2)CC1` + CNC(=O)c1ccc(Nc2nc(OC3CCCC3)c3c(-c4ccc5nc(C)oc5c4)c[nH]c3n2)c(OC)c1, the viability, T/C rises from 2.73% to 25.5%.

Going from `Nc1ccn(C2OC(CO)C(O)C2(F)F)c(=O)n1` (stereo unspecified) + CNC(=O)c1ccc(Nc2nc(OC3CCCC3)c3c(-c4ccc5nc(C)oc5c4)c[nH]c3n2)c(OC)c1 to `O=c1[nH]cc(F)c(=O)[nH]1` + CNC(=O)c1ccc(Nc2nc(OC3CCCC3)c3c(-c4ccc5nc(C)oc5c4)c[nH]c3n2)c(OC)c1, the viability, T/C rises from 4.56% to 14.7%.

Same assay, conditions: second compound 3.16 µM; first compound 3.16 µM; active compounds read low

Compared with `Nc1ccn(C2OC(CO)C(O)C2(F)F)c(=O)n1` (stereo unspecified) + CNC(=O)c1ccc(Nc2nc(OC3CCCC3)c3c(-c4ccc5nc(C)oc5c4)c[nH]c3n2)c(OC)c1, `O=C(c1cc(Cc2n[nH]c(=O)c3ccccc23)ccc1F)N1CCN(C(=O)C2CC2)CC1` + CNC(=O)c1ccc(Nc2nc(OC3CCCC3)c3c(-c4ccc5nc(C)oc5c4)c[nH]c3n2)c(OC)c1 is higher in viability, T/C: 3.52% for the first, 18.5% for the second.

With `O=c1[nH]cc(F)c(=O)[nH]1` + CNC(=O)c1ccc(Nc2nc(OC3CCCC3)c3c(-c4ccc5nc(C)oc5c4)c[nH]c3n2)c(OC)c1 the viability, T/C was 10.8%.

Same assay, conditions: second compound 3.16 µM; first compound 10 µM; active compounds read low

Compared with `Nc1ccn(C2OC(CO)C(O)C2(F)F)c(=O)n1` (stereo unspecified) + CNC(=O)c1ccc(Nc2nc(OC3CCCC3)c3c(-c4ccc5nc(C)oc5c4)c[nH]c3n2)c(OC)c1, `O=C(c1cc(Cc2n[nH]c(=O)c3ccccc23)ccc1F)N1CCN(C(=O)C2CC2)CC1` + CNC(=O)c1ccc(Nc2nc(OC3CCCC3)c3c(-c4ccc5nc(C)oc5c4)c[nH]c3n2)c(OC)c1 is higher in viability, T/C: 3.21% for the first, 22% for the second.

Compound `O=c1[nH]cc(F)c(=O)[nH]1` + CNC(=O)c1ccc(Nc2nc(OC3CCCC3)c3c(-c4ccc5nc(C)oc5c4)c[nH]c3n2)c(OC)c1 has a viability, T/C of 7.07%.

Same assay, conditions: second compound 10 µM; first compound 0.000316 µM; active compounds read low

`Cn1ncnc1[C@H]1c2n[nH]c(=O)c3cc(F)cc(c23)N[C@@H]1c1ccc(F)cc1` + CNC(=O)c1ccc(Nc2nc(OC3CCCC3)c3c(-c4ccc5nc(C)oc5c4)c[nH]c3n2)c(OC)c1 showed a viability, T/C of 16.8%.

Same assay, conditions: second compound 10 µM; first compound 0.001 µM; active compounds read low

`Cn1ncnc1[C@H]1c2n[nH]c(=O)c3cc(F)cc(c23)N[C@@H]1c1ccc(F)cc1` + CNC(=O)c1ccc(Nc2nc(OC3CCCC3)c3c(-c4ccc5nc(C)oc5c4)c[nH]c3n2)c(OC)c1 gave a viability, T/C of 13.4%.

Same assay, conditions: second compound 10 µM; first compound 0.00316 µM; active compounds read low

`CCc1c2c(nc3ccc(O)cc13)-c1cc3c(c(=O)n1C2)COC(=O)[C@]3(O)CC` + CNC(=O)c1ccc(Nc2nc(OC3CCCC3)c3c(-c4ccc5nc(C)oc5c4)c[nH]c3n2)c(OC)c1 was tested, and the viability, T/C was 11.9%.

Source: PubChem BioAssay AID2060599 (Molecular Pharmacology Branch, DTP, NCI, 2025)
